Measurements published in ChEMBL document CHEMBL3885861, “Open TG-GATES”.

Species: Rattus norvegicus
Test: Open TG-GATES - Regimen: Single
Type: toxicity, organism-based, Sprague-Dawley
Parameters: regimen Single, gender Male, age 6 weeks
Settings: in vivo, po, 100 mg/kg, route gavage, dose level Low; for APTT / Bas / Eos / Fbg / Hb / Ht / Lym / MCH / MCHC / MCV / Mono / Neu / PT / Plat / RBC / Ret / WBC: tissue Blood; for KIDNEY_L / KIDNEY_R / KIDNEY_TOTAL: tissue Kidney; for LIVER: tissue Liver; for A/G / ALP / ALT / AST / BUN / CRE / Ca / Cl / DBIL / GLC / IP / K / LDH / Na / PL / RALB / TBIL / TC / TG / TP / gamma-GTP: tissue Plasma

Structure (SMILES): CC[C@@H](CO)NCCN[C@@H](CC)CO [ETHAMBUTOL]
- TERMINAL_BW (3 h): 224 g
- APTT (3 h): 21.6 s
- Bas (3 h): 0%
- Eos (3 h): 0.8%
- Fbg (3 h): 308 mg/dL
- Hb (3 h): 13.7 g/dL
- Ht (3 h): 40%
- Lym (3 h): 80.4%
- MCH (3 h): 21.9 pg
- MCHC (3 h): 34.1%
- MCV (3 h): 64.2 fL
- Mono (3 h): 2.4%
- Neu (3 h): 14.8%
- PT (3 h): 15.6 s
- Plat (3 h): 118 x10_4/uL
- RBC (3 h): 623.8 x10_4/ul
- Ret (3 h): 8.1%
- WBC (3 h): 87.8 x10_2/uL
- KIDNEY_L (3 h): 1 g
- KIDNEY_R (3 h): 1 g
- KIDNEY_TOTAL (3 h): 2 g
- LIVER (3 h): 10.9 g
- A/G (3 h): 1.2
- ALP (3 h): 1530.6 IU/L
- ALT (3 h): 41 IU/L
- AST (3 h): 73 IU/L
- BUN (3 h): 12.6 mg/dL
- CRE (3 h): 0.1 mg/dL
- Ca (3 h): 10.4 mg/dL
- Cl (3 h): 107.4 meq/L
- DBIL (3 h): 0 mg/dL
- GLC (3 h): 189.8 mg/dL
- IP (3 h): 8.6 mg/dL
- K (3 h): 4 meq/L
- LDH (3 h): 172.8 IU/L
- Na (3 h): 142.2 meq/L
- PL (3 h): 134.2 mg/dL
- RALB (3 h): 3 g/dL
- TBIL (3 h): 0.018 mg/dL
- TC (3 h): 72.6 mg/dL
- TG (3 h): 74.4 mg/dL
- TP (3 h): 5.4 g/dL
- gamma-GTP (3 h): 1.8 IU/L
- TERMINAL_BW (6 h): 222.5 g
- APTT (6 h): 21.1 s
- Bas (6 h): 0%
- Eos (6 h): 0.8%
- Fbg (6 h): 318 mg/dL
- Hb (6 h): 13.5 g/dL
- Ht (6 h): 39.8%
- Lym (6 h): 78.8%
- MCH (6 h): 21.8 pg
- MCHC (6 h): 33.9%
- MCV (6 h): 64.2 fL
- Mono (6 h): 2.8%
- Neu (6 h): 16%
- PT (6 h): 15.8 s
- Plat (6 h): 119.6 x10_4/uL
- RBC (6 h): 620.4 x10_4/ul
- Ret (6 h): 7.4%
- WBC (6 h): 92.6 x10_2/uL
- KIDNEY_L (6 h): 1 g
- KIDNEY_R (6 h): 1.1 g
- KIDNEY_TOTAL (6 h): 2.1 g
- LIVER (6 h): 10.2 g
- A/G (6 h): 1.2
- ALP (6 h): 1476.2 IU/L
- ALT (6 h): 45.6 IU/L
- AST (6 h): 77 IU/L
- BUN (6 h): 12.6 mg/dL
- CRE (6 h): 0.2 mg/dL
- Ca (6 h): 10.3 mg/dL
- Cl (6 h): 106.6 meq/L
- DBIL (6 h): 0 mg/dL
- GLC (6 h): 180.4 mg/dL
- IP (6 h): 9.2 mg/dL
- K (6 h): 4.3 meq/L
- LDH (6 h): 191.6 IU/L
- Na (6 h): 140 meq/L
- PL (6 h): 128.6 mg/dL
- RALB (6 h): 2.9 g/dL
- TBIL (6 h): 0.02 mg/dL
- TC (6 h): 72.8 mg/dL
- TG (6 h): 54.6 mg/dL
- TP (6 h): 5.3 g/dL
- gamma-GTP (6 h): 1.8 IU/L
- TERMINAL_BW (9 h): 224.5 g
- APTT (9 h): 22.3 s
- Bas (9 h): 0%
- Eos (9 h): 1%
- Fbg (9 h): 293.4 mg/dL
- Hb (9 h): 13.3 g/dL
- Ht (9 h): 38.9%
- Lym (9 h): 80%
- MCH (9 h): 21.8 pg
- MCHC (9 h): 34.2%
- MCV (9 h): 63.6 fL
- Mono (9 h): 2.2%
- Neu (9 h): 15.6%
- PT (9 h): 16.2 s
- Plat (9 h): 116.9 x10_4/uL
- RBC (9 h): 613 x10_4/ul
- Ret (9 h): 8%
- WBC (9 h): 92.7 x10_2/uL
- KIDNEY_L (9 h): 1 g
- KIDNEY_R (9 h): 1 g
- KIDNEY_TOTAL (9 h): 2.1 g
- LIVER (9 h): 9.4 g
- A/G (9 h): 1.1
- ALP (9 h): 1292.4 IU/L
- ALT (9 h): 36.6 IU/L
- AST (9 h): 66.8 IU/L
- BUN (9 h): 10 mg/dL
- CRE (9 h): 0.2 mg/dL
- Ca (9 h): 10.1 mg/dL
- Cl (9 h): 106.6 meq/L
- DBIL (9 h): 0 mg/dL
- GLC (9 h): 186.2 mg/dL
- IP (9 h): 9 mg/dL
- K (9 h): 4.2 meq/L
- LDH (9 h): 143 IU/L
- Na (9 h): 140.2 meq/L
- PL (9 h): 128.2 mg/dL
- RALB (9 h): 2.9 g/dL
- TBIL (9 h): 0.02 mg/dL
- TC (9 h): 75.4 mg/dL
- TG (9 h): 59.2 mg/dL
- TP (9 h): 5.4 g/dL
- gamma-GTP (9 h): 1.8 IU/L
- TERMINAL_BW (24 h): 238.5 g
- APTT (24 h): 22.6 s
- Bas (24 h): 0%
- Eos (24 h): 0.6%
- Fbg (24 h): 333.2 mg/dL
- Hb (24 h): 13.4 g/dL
- Ht (24 h): 38.7%
- Lym (24 h): 82.4%
- MCH (24 h): 21.7 pg
- MCHC (24 h): 34.7%
- MCV (24 h): 62.7 fL
- Mono (24 h): 2.2%
- Neu (24 h): 14%
- PT (24 h): 15.9 s
- Plat (24 h): 119.4 x10_4/uL
- RBC (24 h): 618.4 x10_4/ul
- Ret (24 h): 7.6%
- WBC (24 h): 93.8 x10_2/uL
- KIDNEY_L (24 h): 1 g
- KIDNEY_R (24 h): 1.1 g
- KIDNEY_TOTAL (24 h): 2.1 g
- LIVER (24 h): 11.9 g
- A/G (24 h): 1.2
- ALP (24 h): 1636.2 IU/L
- ALT (24 h): 46.8 IU/L
- AST (24 h): 75.6 IU/L
- BUN (24 h): 17 mg/dL
- CRE (24 h): 0.1 mg/dL
- Ca (24 h): 10.7 mg/dL
- Cl (24 h): 106.6 meq/L
- DBIL (24 h): 0 mg/dL
- GLC (24 h): 186 mg/dL
- IP (24 h): 8.2 mg/dL
- K (24 h): 4.1 meq/L
- LDH (24 h): 129.2 IU/L
- Na (24 h): 141.8 meq/L
- PL (24 h): 157.6 mg/dL
- RALB (24 h): 3.1 g/dL
- TBIL (24 h): 0.012 mg/dL
- TC (24 h): 88.8 mg/dL
- TG (24 h): 87.4 mg/dL
- TP (24 h): 5.7 g/dL
- gamma-GTP (24 h): 2.2 IU/L
